This note sets out measurements from ChEMBL document CHEMBL1201862, “PubChem BioAssay data set” (2004).

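Dose response: 5 concentrations. Exposure: 48 h. Format: 96-well plates. Endpoint: linear interpolation; highest concentration if not reached. GI50 marks 50% less growth.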 Calls of active or inactive are those of the source. No stated cut-off is given here; in the data, active = GI50 up to about 1.1 µM and inactive = higher. Some results are limits rather than exact numbers.

Some test systems named below: UACC-62; HCC 2998; SK-OV-3; BT-549; OVCAR-8; HOP-92; SN12C; MDA-MB-435; NCI-H226; U-251; SF-295; OVCAR-5; MCF7; M14; HCT-15; TK-10; LOX IMVI; 786-0; MOLT-4; SW-620.
Common to all, as to experiment: inhibition of tumour cell growth, NCI panel, 48 h

Regarding `CCOC(=O)C1=CN2C(=N[C@H]3CCCC[C@@H]32)NC1=O`, the GI50 in the test with UACC-62, with HCC 2998, with SK-OV-3, in the test on BT-549, in the test with OVCAR-8 and with HOP-92 was > 100 µM (inactive) throughout. In addition, the GI50 in the test on SN12C, in the test with MDA-MB-435, in the test on NCI-H226, in the test with U-251, in the test with SF-295 and in the test on OVCAR-5 was > 100 µM (inactive) throughout. Besides, the GI50 in the test on MCF7 is > 100 µM (inactive); in the test on M14 it was > 100 µM (inactive); in the test on HCT-15 it was above 100 µM; with TK-10, > 100 µM (inactive); in the test on LOX IMVI, > 100 µM (inactive); in the test with 786-0, > 100 µM (inactive). The GI50 in the test on MOLT-4 and in the test on SW-620 was > 100 µM (inactive) in each case.

As for `C[C@]12CC/C(=N\OCCN3CCCCC3)C=C1CCC1C2CC[C@@]2(C)C1CC[C@]2(C)O` (stereo partly specified), the GI50 with UACC-62 is 9.86 µM (inactive); with HCC 2998, 9.27 µM (inactive); in the test on SK-OV-3 it was 16.7 µM (inactive); in the test with BT-549, 10 µM (inactive); with OVCAR-8, 11.2 µM (inactive); with HOP-92 it was 8.41 µM (inactive). The GI50 in the test with SN12C is 15.3 µM (inactive); with MDA-MB-435 it was 2.3 µM (inactive); in the test with NCI-H226 it was 3.3 µM (inactive); with U-251, 10.7 µM (inactive); in the test with SF-295, 3.5 µM (inactive); with OVCAR-5, 19.6 µM (inactive). The GI50 was 4.75 µM (inactive) in the test with MCF7; 14.2 µM (inactive) in the test on M14; 5 µM in the test with HCT-15; 12.4 µM (inactive) with TK-10; 4.11 µM (inactive) with LOX IMVI; 5.14 µM (inactive) with 786-0. The results for the GI50 in the test on MOLT-4 and in the test with SW-620 were 2.64 µM (inactive) and 5.65 µM (inactive), respectively.

Take `Cc1ccc([N+](=O)[O-])c2c(NCCC[N+](C)(C)[O-])c3ccccc3nc12`: the GI50 is 1.64 µM (inactive) in the test with UACC-62; 0.841 µM (active) in the test with HCC 2998; 3.86 µM (inactive) in the test on SK-OV-3; 1.5 µM (inactive) with BT-549; 4.75 µM (inactive) in the test with OVCAR-8; 0.962 µM (active) with HOP-92. Also, the GI50 in the test on SN12C is 2.19 µM (inactive); in the test with MDA-MB-435, 1.77 µM (inactive); in the test on NCI-H226, 2.24 µM (inactive); in the test on U-251, 1.32 µM (inactive); in the test on SF-295 it was 3.43 µM (inactive); in the test on OVCAR-5, 3.41 µM (inactive). Besides, the GI50 with MCF7 is 0.401 µM (active); in the test on M14, 2.34 µM (inactive); in the test with HCT-15, 4.99 µM; with TK-10 it was 11.6 µM (inactive); in the test with LOX IMVI, 2.04 µM (inactive); in the test with 786-0, 2.02 µM (inactive). The GI50 with MOLT-4 was 0.33 µM (active); with SW-620 it was 2.18 µM (inactive).

As for `CCOC(=O)C1=C(C)N(c2ccc(C)cc2)C2(O)C=CC(O)=C3C(=O)c4ccccc4C(=O)C312` (stereo unspecified), the GI50 with UACC-62 is 33.1 µM (inactive); with HCC 2998, 29.3 µM (inactive); in the test on SK-OV-3, 35.7 µM (inactive); with BT-549, 19.2 µM (inactive); in the test with OVCAR-8, 21.6 µM (inactive); in the test on HOP-92, 19.3 µM (inactive). In addition, the GI50 in the test on SN12C was 32.4 µM (inactive); with MDA-MB-435, 36.2 µM (inactive); with NCI-H226, 59.3 µM (inactive); in the test on U-251, 39.7 µM (inactive); in the test on SF-295, 68.1 µM (inactive); in the test on OVCAR-5, 54.2 µM (inactive). The GI50 in the test with MCF7 is 23.3 µM (inactive); in the test on M14 it was 36.6 µM (inactive); with HCT-15 it was 22.8 µM; in the test with TK-10, 44 µM (inactive); with LOX IMVI, 25.2 µM (inactive); with 786-0 it was 33.9 µM (inactive). Besides, the GI50 is 0.374 µM (active) in the test with MOLT-4 and 28.1 µM (inactive) in the test on SW-620.

Turning to `COc1cc2c(c(O)c1C)C(=O)C(Cl)=CC2=O`, the GI50 in the test with UACC-62 is 7.23 µM (inactive); in the test with HCC 2998, 22.3 µM (inactive); in the test on SK-OV-3, > 53.1 µM (inactive); in the test with BT-549, 8.3 µM (inactive); in the test with OVCAR-8, 18.8 µM (inactive); in the test on HOP-92 it was 4.71 µM (inactive). For the same compound, the GI50 with SN12C is 12.4 µM (inactive); in the test with MDA-MB-435 it was 7.46 µM (inactive); in the test with NCI-H226, 15.1 µM (inactive); with U-251, 21.4 µM (inactive); in the test with SF-295 it was 18.7 µM (inactive); with OVCAR-5 it was 28.5 µM (inactive). The GI50 in the test with MCF7 was 6.85 µM (inactive); in the test on M14 it was 6.47 µM (inactive); with HCT-15 it was 11.5 µM; in the test on TK-10 it was 7.41 µM (inactive); in the test with LOX IMVI, 9.53 µM (inactive); in the test with 786-0, 11.6 µM (inactive). Also, the GI50 with MOLT-4 was 1.88 µM (inactive); in the test on SW-620 it was 3.06 µM (inactive).

As for `CCN(CC)c1c(N(CC)CC)c(=O)c1=O`, the GI50 in the test on UACC-62 was 18.2 µM (inactive); in the test with HCC 2998, 20.3 µM (inactive); with SK-OV-3, > 100 µM (inactive); with BT-549, 19.1 µM (inactive); with OVCAR-8 it was 10.3 µM (inactive); with HOP-92, 3.94 µM (inactive). Moreover, the GI50 with SN12C is 9.1 µM (inactive); in the test on MDA-MB-435, 20.7 µM (inactive); with NCI-H226, 17.2 µM (inactive); in the test on U-251 it was 22.9 µM (inactive); with SF-295, > 88.9 µM (inactive); in the test on OVCAR-5, 18 µM (inactive). Moreover, the GI50 in the test on MCF7 is 11.2 µM (inactive); with M14, 16.7 µM (inactive); in the test with HCT-15, 3.67 µM; in the test on TK-10 it was 2.82 µM (inactive); in the test with LOX IMVI it was 11.8 µM (inactive); in the test with 786-0 it was 5.35 µM (inactive). For the same compound, the GI50 is 3.1 µM (inactive) in the test with MOLT-4 and 4.16 µM (inactive) in the test on SW-620.

Take `CC1(C)C=C(S(=O)(=O)c2ccccc2)Oc2ccccc2O1`: the GI50 was 38.4 µM (inactive) in the test with UACC-62; 15.7 µM (inactive) in the test on HCC 2998; 60.3 µM (inactive) in the test with SK-OV-3; 42.7 µM (inactive) in the test on BT-549; 32.1 µM (inactive) with OVCAR-8; 24.5 µM (inactive) in the test on HOP-92. Also, the GI50 is 64.9 µM (inactive) in the test on SN12C; 20.5 µM (inactive) with MDA-MB-435; 46.6 µM (inactive) with NCI-H226; 45.4 µM (inactive) in the test on U-251; 33 µM (inactive) in the test on SF-295; > 100 µM (inactive) in the test with OVCAR-5. The GI50 is 43.5 µM (inactive) in the test on MCF7; 46 µM (inactive) with M14; 33.3 µM in the test with HCT-15; 6.7 µM (inactive) in the test with TK-10; 16.3 µM (inactive) in the test with LOX IMVI; 44.6 µM (inactive) in the test on 786-0. Moreover, the GI50 in the test on MOLT-4 is 25.2 µM (inactive); in the test with SW-620, 75.9 µM (inactive).

For `O=C1c2cccc3cccc(c23)C(=O)N1CCCNOCCONCCCN1C(=O)c2cccc3cccc(c23)C1=O`, the GI50 in the test on UACC-62 was > 100 µM (inactive); in the test on HCC 2998, 98.2 µM (inactive); in the test on SK-OV-3 it was > 100 µM (inactive); in the test on BT-549, 73.3 µM (inactive); in the test on OVCAR-8, 43.3 µM (inactive); in the test on HOP-92, 56 µM (inactive). Further, the GI50 is > 100 µM (inactive) with MDA-MB-435; 74.6 µM (inactive) in the test with NCI-H226; 59.7 µM (inactive) with U-251; > 100 µM (inactive) with SF-295; > 100 µM (inactive) with OVCAR-5; 64.7 µM (inactive) in the test on MCF7. Also, the GI50 in the test on M14 was 62.4 µM (inactive); in the test on HCT-15, 44 µM; with TK-10, > 100 µM (inactive); in the test on LOX IMVI, 43.5 µM (inactive); with 786-0, 33.5 µM (inactive); in the test on MOLT-4 it was 12.1 µM (inactive). For the same compound, in the test with SW-620, the GI50 is 66.4 µM (inactive).

On to `NNC(=O)c1cccc2c1Oc1ccccc1S2`, for which the GI50 with UACC-62 is > 100 µM (inactive); in the test on HCC 2998, > 100 µM (inactive); in the test with SK-OV-3 it was 65.2 µM (inactive); in the test with BT-549 it was 97.3 µM (inactive); in the test with OVCAR-8 it was 98.6 µM (inactive); in the test on HOP-92 it was > 100 µM (inactive). The GI50 in the test with MDA-MB-435 was > 100 µM (inactive); in the test with NCI-H226, 1.23 µM (inactive); with U-251, > 100 µM (inactive); in the test with SF-295 it was 77.3 µM (inactive); with MCF7, > 100 µM (inactive); in the test on M14 it was > 100 µM (inactive). Moreover, the GI50 is above 100 µM with HCT-15; > 100 µM (inactive) in the test on TK-10; 88.3 µM (inactive) in the test on LOX IMVI; > 100 µM (inactive) with 786-0; 55 µM (inactive) in the test with MOLT-4; > 100 µM (inactive) in the test with SW-620.

On to `Cc1ccccc1-n1c(=O)c2ncn(C3CCCO3)c2n(-c2ccccc2C)c1=S` (stereo unspecified), for which the GI50 in the test on UACC-62, with HCC 2998, in the test on SK-OV-3, in the test on BT-549, with OVCAR-8 and in the test with HOP-92 was > 100 µM (inactive) in each case. Further, the GI50 in the test with SN12C, with MDA-MB-435, in the test with NCI-H226, with SF-295, in the test on OVCAR-5 and in the test on MCF7 was > 100 µM (inactive) each time. Also, the GI50 in the test with M14 was > 100 µM (inactive); with HCT-15 it was above 100 µM; in the test on TK-10, > 100 µM (inactive); with LOX IMVI, > 100 µM (inactive); in the test with 786-0, > 100 µM (inactive); with MOLT-4 it was > 100 µM (inactive). In addition, the GI50 with SW-620 is > 100 µM (inactive).
